Experimental data from patent US20170172994A1, “COMPOSITIONS AND METHODS FOR TREATING BACTERIAL INFECTIONS” (WOCKHARDT LIMITED, priority 2013, published 2017).
Where two headings read alike, the source gives them in different places.

What was measured:
E. coli ATCC 25922 [1] = experiment: Time kill study (viability count); assay type: cell-based; conditions: for Bacterial count: Compound of Formula (III) 2 μg/ml, alone or combined; for Bactericidal action (in words): E. coli ATCC 25922, standalone or combination, Tables 3 to 5
Protocol: (§1) The antibacterial effectiveness of various antibacterial agents in presence of a compound of Formula (III) was investigated and the results are detailed below. In a typical study, overnight cultures in Trypticase soya broth (TSB) were brought to log phase by 1 in 10 dilution in fresh cation adjusted Mueller Hinton Broth (MHB) and incubation for 2.5 hours at 35° C. in orbital shaker. Log phase cultures were diluted to desired inoculums in flasks with MHB, containing various drug concentrations. Flasks were incubated at 35° C. in orbital shaker with rotational speed of 125 rpm. Viability count was determined by 1 in 10 serial dilutions of samples in normal saline and surface spreading of 10 μl of dilutions in duplicate on Trypticase soya agar plates. Plates were incubated for 24 hours at 35° C. and colonies were enumerated to determine the colony forming units (CFU) per ml volume.

P. aeruginosa PAO1 = experiment: Time kill study (viability count); assay type: cell-based; conditions: for Bacterial count: Compound of Formula (III) 4 μg/ml, alone or combined; for Bactericidal action (in words): P. aeruginosa PAO1, standalone or combination, Tables 6 and 7
Protocol: as §1

[2] = test system: K. pneumonia S48 expressing multiple ESBLs including MBL (NDM4) and Class A (CTX-M, SHV, TEM); assay type: cell-based, K. pneumoniae; conditions: Cefepime 8 μg/ml, Compound of Formula (III) 2 μg/ml, Clavulanic acid 2 μg/ml, Mecillinam 2 μg/ml, Imipenem 8 μg/ml
Protocol: Log phase cultures were diluted to desired inoculums in flasks with MHB, containing various drug concentrations. Flasks were incubated at 35° C. in orbital shaker with rotational speed of 125 rpm. […] Plates were incubated for 24 hours at 35° C. and colonies were enumerated to determine the colony forming units (CFU) per ml volume.

[3] = test system: Pseudomonas aeruginosa NCTC 13437 producing carbapenem hydrolyzing MBL (VIM 10) & Class A (VEB1); experiment: Time kill study (viability count); assay type: cell-based; conditions: Cefepime 8 μg/ml, Compound of Formula (III) 8 μg/ml, Imipenem 16 μg/ml
Protocol: as §1

[4] = test system: Acinetobacter baumannii NCTC 13304 producing carbapenem hydrolyzing Class D OXA enzyme (OXA 27); experiment: Time kill study (viability count); assay type: cell-based; conditions: Cefepime 8 μg/ml, Compound of Formula (III) 8 μg/ml, Imipenem 16 μg/ml
Protocol: as §1

[5] = test system: MDR Klebsiella pneumoniae B 88 producing NDM, SHV & TEM beta-lactamases; experiment: Time kill study at MFC and MSC; assay type: cell-based; conditions: Cefepime 8 mcg/ml (MFC), Compound of Formula (III) 0.12 mcg/ml (MSC), Imepenem 8 mcg/ml
Protocol: (§2) The synergistic killing effect of the combinations according to invention was studied by performing time kill studies. In a typical time kill study, the freshly grown cultures were diluted to the required cell density (initial starting inoculum) in Cation adjusted Muller Hinton broth medium (BD, USA). The antibacterial agents (either alone or in combination) at the required concentrations were added into the culture-containing medium. The samples were incubated under shaking condition (120 rpm) at 37° C. Enumeration of viable bacterial count was done every 2 hour by diluting in normal saline and plating on to the Tryptic Soya Agar plates (BD, USA). The plates were incubated for 24 hours to arrive at the viable bacterial count. The results are expressed in terms of Log CFU per ml. In general, the decrease of 1 Log CFU/ml, corresponds to 90% killing of bacteria. Similarly, 2 Log CFU/ml reductions indicates to 99% killing of bacteria and 3 Log CFU/ml reductions is equal to 99.9% killing of bacteria.

[6] = test system: MDR P. mirabilis G 186 producing NDM & TEM β-lactamases; experiment: Time kill study at MFC and MSC; assay type: cell-based; conditions: Cefepime 8 mcg/ml (MFC), Compound of Formula (III) 0.25 mcg/ml (MSC), Imepenem 8 mcg/ml
Protocol: as §2

E. coli ATCC 25922 [7] = experiment: Microbiological drug diffusion assay, standalone compounds in absence of beta-lactamase enzymes; assay type: cell-based; conditions: Escherichia coli, ATCC25922, 40 μg/ml, no beta-lactamase, read-out: Inhibition zone diameter
Protocol: Next, the beta-lactamase stability of some of these compounds was evaluated. In a typical stability study, ESBL enzymes from K. pneumoniae S48 producing Metalo betalactamase (NDM4) and Class A (CTX-M, SHV, TEM) beta-lactamase were isolated from freshly grown culture by 5 repetitive cycles of freeze and thaw in liquid nitrogen. […] After the stipulated incubation duration, the test compounds were extracted from the reaction mixture by the addition of 0.5 ml of Acetonitrile in 1:1 ratio (final concentration of test compound—40 μg/ml) and centrifuged at 12000 rpm for 2 min to separate precipitated protein. The activity of test compounds was measured from the supernatant by performing microbiological drug diffusion assay. For drug diffusion assay, Muller-Hinton Agar (MHA) seeded with E. coli ATCC 25922 was poured on to a bioassay plate placed on a flat surface and allowed to solidify. Appropriate concentration of the standalone and enzyme treated test compound dilutions were added to 6 mm wells cut with the help of a borer. The antibacterial activity of the test compounds was measured in terms of zones of inhibition appearing after 18-24 hours of incubation at 37° C. Measurement of diameter of zone of inhibition was undertaken to the nearest whole value with the help of ruler.

C[C@H]1[C@H](NC(=O)/C(=N\OC(C)(C)C(=O)O)c2csc(N)n2)C(=O)N1S(=O)(=O)O [Aztreonam]
Bacterial count (E. coli ATCC 25922 [1]; 0 hour, Aztreonam 1 μg/ml): 7.47 log (CFU/ml) | Bacterial count (E. coli ATCC 25922 [1]; 2 hours, Aztreonam 1 μg/ml): 7.48 log (CFU/ml) | Bacterial count (E. coli ATCC 25922 [1]; 4 hours, Aztreonam 1 μg/ml): 7.47 log (CFU/ml) | Bacterial count (E. coli ATCC 25922 [1]; 6 hours, Aztreonam 1 μg/ml): 7.48 log (CFU/ml) | Bacterial count (E. coli ATCC 25922 [1]; 24 hours, Aztreonam 1 μg/ml): 7.5 log (CFU/ml) | Bactericidal action (in words) (E. coli ATCC 25922 [1]): did not exhibit any bactericidal action | Bacterial count (P. aeruginosa PAO1; 0 hour, Aztreonam 2 μg/ml): 5.74 log (CFU/ml) | Bacterial count (P. aeruginosa PAO1; 2 hours, Aztreonam 2 μg/ml): 6.3 log (CFU/ml) | Bacterial count (P. aeruginosa PAO1; 4 hours, Aztreonam 2 μg/ml): 6.65 log (CFU/ml) | Bacterial count (P. aeruginosa PAO1; 6 hours, Aztreonam 2 μg/ml): 6.54 log (CFU/ml) | Bacterial count (P. aeruginosa PAO1; 24 hours, Aztreonam 2 μg/ml): 7.15 log (CFU/ml) | Bactericidal action (in words) (P. aeruginosa PAO1): did not exhibit any bactericidal action

CO[C@@]1(NC(=O)Cc2cccs2)C(=O)N2C(C(=O)O)=C(COC(N)=O)CS[C@@H]21 [Cefoxitin]
Bacterial count (E. coli ATCC 25922 [1]; 0 hour, Cefoxitin 1 μg/ml): 7.47 log (CFU/ml) | Bacterial count (E. coli ATCC 25922 [1]; 2 hours, Cefoxitin 1 μg/ml): 7.11 log (CFU/ml) | Bacterial count (E. coli ATCC 25922 [1]; 4 hours, Cefoxitin 1 μg/ml): 6.7 log (CFU/ml) | Bacterial count (E. coli ATCC 25922 [1]; 6 hours, Cefoxitin 1 μg/ml): 6.54 log (CFU/ml) | Bacterial count (E. coli ATCC 25922 [1]; 24 hours, Cefoxitin 1 μg/ml): 9 log (CFU/ml) | Bactericidal action (in words) (E. coli ATCC 25922 [1]): did not exhibit any significant bactericidal action

NC(=O)c1cc[n+](CC2=C(C(=O)O)N3C(=O)[C@@H](NC(=O)[C@@H](c4ccccc4)S(=O)(=O)[O-])[C@H]3SC2)cc1 [Cefsulodin]
Bacterial count (E. coli ATCC 25922 [1]; 0 hour, Cefsulodin 16 μg/ml): 7.47 log (CFU/ml) | Bacterial count (E. coli ATCC 25922 [1]; 2 hours, Cefsulodin 16 μg/ml): 8.4 log (CFU/ml) | Bacterial count (E. coli ATCC 25922 [1]; 4 hours, Cefsulodin 16 μg/ml): 8.8 log (CFU/ml) | Bacterial count (E. coli ATCC 25922 [1]; 6 hours, Cefsulodin 16 μg/ml): 8.3 log (CFU/ml) | Bacterial count (E. coli ATCC 25922 [1]; 24 hours, Cefsulodin 16 μg/ml): 9 log (CFU/ml) | Bactericidal action (in words) (E. coli ATCC 25922 [1]): did not exhibit any bactericidal action | Bacterial count (P. aeruginosa PAO1; 0 hour, Cefsulodin 2 μg/ml): 6.81 log (CFU/ml) | Bacterial count (P. aeruginosa PAO1; 2 hours, Cefsulodin 2 μg/ml): 6.48 log (CFU/ml) | Bacterial count (P. aeruginosa PAO1; 4 hours, Cefsulodin 2 μg/ml): 5.07 log (CFU/ml) | Bacterial count (P. aeruginosa PAO1; 6 hours, Cefsulodin 2 μg/ml): 4.74 log (CFU/ml) | Bacterial count (P. aeruginosa PAO1; 24 hours, Cefsulodin 2 μg/ml): 9 log (CFU/ml) | Bactericidal action (in words) (P. aeruginosa PAO1): failed to cause consistent killing till 24 hour

C[C@@H](O)[C@H]1C(=O)N2C(C(=O)O)=C(SCCN=CN)C[C@H]12 [Imipenem]
Bacterial count ([2]; 0 hour): 5.5 log (CFU/ml) | Bacterial count ([2]; 2 hours): 3.0 log (CFU/ml) | Bacterial count ([2]; 4 hours): 3.0 log (CFU/ml) | Bacterial count ([2]; 6 hours): 4.0 log (CFU/ml) | Bacterial count ([2]; 24 hours): 8.69 log (CFU/ml) | Bacterial count ([3]; 0 hour): 6.0 log (CFU/ml) | Bacterial count ([3]; 2 hours): 7.2 log (CFU/ml) | Bacterial count ([3]; 4 hours): 7.9 log (CFU/ml) | Bacterial count ([3]; 6 hours): 7.9 log (CFU/ml) | Bacterial count ([3]; 12 hours): 8.3 log (CFU/ml) | Bacterial count ([4]; 0 hour): 6.3 log (CFU/ml) | Bacterial count ([4]; 2 hours): 7.2 log (CFU/ml) | Bacterial count ([4]; 4 hours): 7.9 log (CFU/ml) | Bacterial count ([4]; 6 hours): 7.9 log (CFU/ml) | Bacterial count ([4]; 8 hours): 8 log (CFU/ml) | Bacterial count ([5]; 0 hour): 6.14 Log10 CFU/ml | Bacterial count ([5]; 2 hours): 8.65 Log10 CFU/ml | Bacterial count ([5]; 4 hours): 8.7 Log10 CFU/ml | Bacterial count ([5]; 6 hours): 8.74 Log10 CFU/ml | Bacterial count ([5]; 8 hours): 8.78 Log10 CFU/ml | Bacterial count ([6]; 0 hour): 6.58 Log10 CFU/ml | Bacterial count ([6]; 2 hours): 7.2 Log10 CFU/ml | Bacterial count ([6]; 4 hours): 9.45 Log10 CFU/ml | Bacterial count ([6]; 6 hours): 8.65 Log10 CFU/ml | Bacterial count ([6]; 8 hours): 8.85 Log10 CFU/ml | zone of inhibition at 40 µg/mL (E. coli ATCC 25922 [7]; 0 hour): 22 mm | zone of inhibition at 40 µg/mL (E. coli ATCC 25922 [7]; 1 hour): 22 mm | zone of inhibition at 40 µg/mL (E. coli ATCC 25922 [7]; 2 hours): 22 mm | zone of inhibition at 40 µg/mL (E. coli ATCC 25922 [7]; 24 hours): 22 mm
